According to US20050276766A1, “Methods and compositions for increasing skin remodeling” (Skin Biology, Inc., priority 2003, published 2005):

System: scar formation after surgical incisions
Assay: Scar formation after surgical incisions in mice, cream applied 24 hours after surgery
Format: in vivo, Swiss-Webster mice
Conditions: rated from 0 (little or no scarring) to 4 (maximum observed scarring); cream at pH 6.5 applied 24 hours after 1.25 cm surgical incision; 15 mice
Experimental: This Example describes the use of a pastes prepared with the complexes of various copper peptides or copper complexes of amino acids and combinations of copper peptides or copper complexes of amino acids and salicylic acid to reduce scarring after surgery in animals.
Surgical incisions (1.25 cm) were made on the backs of anesthetized, 35 gram, Swiss-Webster mice. To allow normal scar development, there was no treatment after surgery. But 24 hours after surgery, the scars were covered with a cream containing either copper peptide alone or in combination with salicylic acid. Control wounds were untreated.
For comparison, the amount of scar formation was rated from 0 (little or no scarring) to 4 (maximum observed scarring) after seven days.
Table 1: Effect of cream at pH 6.5 with either peptide-copper complex or amino acid-copper complex or the combination of peptide copper/salicylic acid combination or amino acid copper/salicylic acid combination on scar formation

Gly-His-Lys-Copper(II)
Scar Formation score after 7 days: 2.7 ± 0.6
